Converted amounts (≈) assume the structure as drawn.
Experiment: Toxicity against Artemia salina after 24 hrs
Assay type: organism-based
Details: in vivo

Q: With CC(C)C/C=C/[C@@H](C)[C@H]1CC[C@H]2[C@@H]3[C@@H](O)C=C4C[C@@H](O)CC[C@]4(CO)[C@H]3CC[C@]12C as the compound, how does the LC50 at 24 h read?
A: Its LC50 at 24 h is 30.7 µg/mL (≈ 73.7 µM).

Q: Which LC50 at 24 h does the source give for CC(C)CCC[C@@H](C)[C@H]1CC[C@H]2[C@@H]3[C@@H](O)C=C4C[C@@H](O)CC[C@]4(CO)[C@H]3CC[C@]12C here?
A: Its LC50 at 24 h is 55.6 µg/mL (≈ 133 µM).

Q: Which LC50 at 24 h does the source give for CC(C)CCC[C@@H](C)[C@H]1CC[C@H]2[C@@H]3[C@@H](O)C=C4C[C@@H](O)CC[C@]4(CO)[C@@]3(O)CC[C@]12C here?
A: Its LC50 at 24 h is 7.2 µg/mL (≈ 16.6 µM).

Q: For CC(C)CCC[C@](C)(O)[C@H]1C(=O)C[C@H]2[C@@H]3CCC4=CC(=O)C=C[C@]4(C)[C@H]3CC[C@@]21CO, which LC50 at 24 h is on record?
A: Its LC50 at 24 h is 139 µg/mL (≈ 325 µM).

Reference: ChEMBL document CHEMBL1159011, “Four new bioactive polyhydroxylated sterols from the black coral Antipathes subpinnata” (J Nat Prod, 1992)
